# Experimental data published in patent US20260234144A1 (TAY THERAPEUTICS LIMITED, priority 2023, published 2026).
# Test system: R223X stop codon in the mutated luciferase gene, ADXC8 luciferase reporter cell line
# Test: cells
# Type: cell-based
# Conditions: for EC (100% of 200 uM G418 response) / Emax: 24 h; for EC (100% of 200 uM G418 response): read-out: pC100%, negative logarithm of the concentration giving the same response as 200 μM G418; for Emax: read-out: Fold Over Control, maximum fold response relative to 200 μM G418; for pC100%: negative logarithm of the concentration giving the same response as 200 μM G418
Structure (SMILES),"EC (100% of 200 uM G418 response) (ADXC8 cells, 24 hours) [µM]","Emax (ADXC8 cells, 24 hours) [%]","pC100% response (assayed at a concentration of 300 μM, C100% = concentration giving the same response as 200 μM G418)","pC100% (ADXC8 cells, 24 hours)","Fold Over Control (maximum fold response relative to 200 μM G418, ADXC8 cells, 24 hours)"
CN1CCC(Nc2nc(N)c3ccc(-c4ccc(F)cc4F)nc3n2)CC1 [Example 85],1 to 10,,,,
CC(C)c1cnc2nc(NC3CCN(C)CC3)nc(N)c2c1 [Example 276],10 to 100,100 to 3000,,,
Cc1cc(C)c2c(N)nc(N[C@H]3CCCC[C@@H]3N(C)C)nc2n1 [Example 155],> 31.6,0 to 100,,,
Cc1cc(C)c2c(N(C)C)nc(NC3CCN(C)CC3)nc2n1 [Example 262],10 to 100,100 to 3000,,,
CNC(=O)c1cccc(-c2ccc3c(N)nc(NC4CCN(C)CC4)nc3n2)c1 [Example 80],10 to 100,100 to 3000,,,
"COC(C)c1ccnc2nc(NC3CCN(C)CC3)nc(N)c12 (centres unmarked) [Example 252, 5-(1-methoxyethyl)-N^2-(1-methylpiperidin-4-yl)pyrido[2,3-d]pyrimidine-2,4-diamine]",> 100,0 to 100,,,
CNc1nc(NC2CCN3CCCC23)nc2nc(C)cc(C)c12 (centres unmarked) [Example 439],> 31.6,0 to 100,,,
"Nc1nc(N)c2cccnc2n1 [pyrido[2,3-d]pyrimidine-2,4-diamine, reference compound]",> 100,0 to 100,not reached,,
CNc1nc(NC2CCCN3CCCC23)nc2nc(C)cc(C)c12 (centres unmarked) [Example 598],,100 to 3000,,+ (pC100% > 4.0 ≤ 5.0),
CNc1nc(N[C@@H]2CCCN(C)C2)nc2nc(C)cc(C)c12 [Example 385],0.1 to 1,,,,
Cc1cc(C)c2c(N)nc(N[C@H]3CCCN(Cc4ccccc4)C3)nc2n1 [Example 215],1 to 10,100 to 3000,,,
Cc1cc(C)c2c(N)nc(NC3CCN(Cc4nccs4)CC3)nc2n1 [Example 463],1 to 10,100 to 3000,,,
CNc1nc(N[C@H]2CN(Cc3ccccc3)C[C@@H]2O)nc2nc(C)cc(C)c12 [Example 622],1 to 10,100 to 3000,,,
Cc1cc(C)c2c(N)nc(NC3C[C@H]4CC[C@@H](C3)N4C)nc2n1 (some centres unmarked) [Example 218],1 to 10,100 to 3000,,,
Cc1cc(C)c2c(NCc3ccccn3)nc(NC3CCN(C)CC3)nc2n1 [Example 317],10 to 100,100 to 3000,,,
CC(=O)Nc1cnccc1CN1CCC(Nc2nc(N)c3c(C)cc(C)nc3n2)CC1 [Example 560],1 to 10,100 to 3000,,,
CN1CCC(Nc2nc(N)c3ccc(-c4ccc(Cl)cc4)nc3n2)CC1 [Example 96],10 to 100,,,,
Cc1c2c(nc3nc(NC4CCN(Cc5ccccc5O)CC4)cc(N)c13)CCC2 [Example 680],0.01 to 0.1,100 to 3000,,,
Cc1cc(C)c2c(N)nc(NCCCN3CC4(CCOC4)C3)nc2n1 [Example 187],10 to 100,100 to 3000,,,
Cc1cc(C)c2c(N)nc(NCCN3CC(F)C3)nc2n1 [Example 163],10 to 100,100 to 3000,,,

Structure (SMILES),"EC (100% of 200 uM G418 response) (ADXC8 cells, 24 hours) [µM]","Emax (ADXC8 cells, 24 hours) [%]","pC100% response (assayed at a concentration of 300 μM, C100% = concentration giving the same response as 200 μM G418)","pC100% (ADXC8 cells, 24 hours)","Fold Over Control (maximum fold response relative to 200 μM G418, ADXC8 cells, 24 hours)"
CN1CCC(Nc2nc(N)c3ccc(-c4cccc(O)c4)nc3n2)CC1 [Example 104],10 to 100,,,,
CCNc1nc(N[C@H]2CN(C)C[C@H]2F)nc2nc(C)cc(C)c12 [Example 395],1 to 10,,,,
CCNc1nc(N[C@H]2CNC[C@@H]2O)nc2nc(C)cc(C)c12 [Example 392],1 to 10,,,,
Cc1cc(C)c2c(N)nc(NC3CCN(Cc4c(F)cccc4F)CC3)nc2n1 [Example 479],1 to 10,100 to 3000,,,
Cc1cc(C)c2c(N)nc(NC3CCN(Cc4cccc(C)c4O)CC3)nc2n1 [Example 539],0.1 to 1,100 to 3000,,,
CNc1nc(N[C@H]2CN(C)C[C@@H]2F)nc2nc(C)cc(C)c12 [Example 339],1 to 10,100 to 3000,,,
CC(=O)Nc1cccc(CN2CCC(Nc3nc(N)c4c(C)cc(C)nc4n3)CC2)c1 [Example 480],10 to 100,100 to 3000,,,
CNc1nc(N[C@H]2CN(C)C[C@@H]2F)nc2nc(C)c3c(c12)CCC3 [Example 365],0.1 to 1,100 to 3000,,,
Cc1cc(C)c2c(N)nc(NC3CCN(Cc4cccc(F)c4)CC3)nc2n1 [Example 466],1 to 10,100 to 3000,,,
CNC(=O)c1ccc(CN2CCC(Nc3nc(N)c4c(C)cc(C)nc4n3)CC2)cc1 [Example 475],10 to 100,100 to 3000,,,
Cc1cc(C)c2c(N)nc(NC3CCNCC3)nc2n1 [Example 279],1 to 10,100 to 3000,,,
CNc1nc(NC2CCNCC2)nc2nc(C)cc(C)c12 [Example 588],0.1 to 1,,,,
Cc1cc(C)c2c(N)nc(NCCCN3CCCCC3C)nc2n1 (centres unmarked) [Example 150],1 to 10,100 to 3000,,,
Cc1cc(C)c2c(N(C)C3CC3)nc(NC3CCN(C)CC3)nc2n1 [Example 265],> 100,0 to 100,,,
"CN1CCC(Nc2nc(N)c3cc(Br)cnc3n2)CC1 [Example 20, 6-bromo-N^2-(1-methylpiperidin-4-yl)pyrido[2,3-d]pyrimidine-2,4-diamine]",10 to 100,100 to 3000,,,
Cc1cc(C)c2c(N)nc(NC3CCN(Cc4cc(Cl)ccc4O)CC3)nc2n1 [Example 542],1 to 10,100 to 3000,,,
"CNc1nc(NC2CNCC2C(F)F)nc2nc(C)cc(C)c12 (single isomer, unassigned) [Example 429]",,,,+++ (pC100% > 6.0 ≤ 7.0),
Cc1cc(C)c2c(Nc3ccccc3)nc(NC3CCN(C)CC3)nc2n1 [Example 267],> 31.6,0 to 100,,,
Cc1cc(C)c2c(N)nc(NCCCN3CC4(CCCO4)C3)nc2n1 [Example 192],> 31.6,0 to 100,,,
Cc1cc(C)c2c(N)nc(N[C@@H]3CCN(Cc4ccc(C#N)cc4)C[C@@H]3O)nc2n1 [Example 562],1 to 10,100 to 3000,,,

Structure (SMILES),"EC (100% of 200 uM G418 response) (ADXC8 cells, 24 hours) [µM]","Emax (ADXC8 cells, 24 hours) [%]","pC100% response (assayed at a concentration of 300 μM, C100% = concentration giving the same response as 200 μM G418)","pC100% (ADXC8 cells, 24 hours)","Fold Over Control (maximum fold response relative to 200 μM G418, ADXC8 cells, 24 hours)"
Cc1cc(C)c2c(N)nc(N[C@@H]3CNC[C@H]3O)nc2n1 [Example 302],1 to 10,100 to 3000,,,
Cc1cc(C)c2c(N)nc(NC3CCN(Cc4cc(F)cc(F)c4O)CC3)nc2n1 [Example 569],1 to 10,100 to 3000,,,
"CNc1cc(N[C@@H]2CCN(C)C2)nc2nc3c(c(C)c12)CCC3 [Example 258, (R)—N^4,5-dimethyl-N^2-(1-methylpyrrolidin-3-yl)-7,8-dihydro-6H-cyclopenta[b][1,8]naphthyridine-2,4-diamine]",0.1 to 1,100 to 3000,,,
CNc1nc(N[C@H]2C[C@H](C)N(C)C2)nc2nc(C)cc(C)c12 [Example 373],1 to 10,100 to 3000,,,
"CC#Cc1cnc2nc(NC3CCN(C)CC3)nc(N)c2c1 [Example 42, N^2-(1-methylpiperidin-4-yl)-6-(prop-1-yn-1-yl)pyrido[2,3-d]pyrimidine-2,4-diamine]",> 100,0 to 100,,,
COCCN1CCC(Nc2nc(N)c3c(C)cc(C)nc3n2)CC1 [Example 172],10 to 100,100 to 3000,,,
"COCc1ccc2c(N)nc(NC3CCN(C)CC3)nc2n1 [Example 237, 7-(methoxymethyl)-N^2-(1-methylpiperidin-4-yl)pyrido[2,3-d]pyrimidine-2,4-diamine]",10 to 100,100 to 3000,,,
CNc1nc(N[C@H]2CN(C(C)C)C[C@@H]2O)nc2nc(C)cc(C)c12 [Example 625],1 to 10,100 to 3000,,,
"CC(=O)Nc1cc(C#N)ccc1CN1CCC(Nc2nc(N)c3c(C)cc(C)nc3n2)CC1 [Example 511, N-(2-((4-((4-amino-5,7-dimethylpyrido[2,3-d]pyrimidin-2-yl)amino)piperidin-1-yl)methyl)-5-cyanophenyl)acetamide]",1 to 10,100 to 3000,,,
"CNc1nc(NC2CCN3CCCC3C2)nc2nc(C)cc(C)c12 (single isomer, unassigned) [Example 442]",1 to 10,,,,
CN1CCC(Nc2nc(N)c3ccc(-c4ccccc4C(=O)N(C)C)nc3n2)CC1 [Example 75],> 100,0 to 100,,,
Cc1c2c(nc3nc(NC4CCN(Cc5cn[nH]c5)CC4)nc(N)c13)CCC2 [Example 661],1 to 10,100 to 3000,,,
Cc1cc(C)c2c(N)nc(NCCCN3CC(C(F)(F)F)C3)nc2n1 [Example 190],10 to 100,100 to 3000,,,
"CNc1nc(NC2CC3CCC2N3)nc2nc(C)cc(C)c12 (centres unmarked) [Example 518, N^2-(-7-azabicyclo[2.2.1]heptan-2-yl)-N^4,5,7-trimethylpyrido[2,3-d]pyrimidine-2,4-diamine]",,,,+ (pC100% > 4.0 ≤ 5.0),## (Fold over Ctrl > 1 ≤ 30)
"CN1CCC(Nc2nc(N)c3ccc(Oc4ccccc4)nc3n2)CC1 [Example 32, N^2-(1-methylpiperidin-4-yl)-7-phenoxypyrido[2,3-d]pyrimidine-2,4-diamine]",10 to 100,100 to 3000,,,
COCc1ccccc1-c1ccc2c(N)nc(NC3CCN(C)CC3)nc2n1 [Example 58],10 to 100,100 to 3000,,,
Cc1c2c(nc3nc(N[C@@H]4CCCNC4)nc(N)c13)CCC2 [Example 581],0.01 to 0.1,100 to 3000,,,
Cc1cc(C)c2c(N)nc(N[C@H]3CNC[C@@H]3O)nc2n1 [Example 293],0.1 to 1,,,,
Cc1nc2nc(NC3CCN(Cc4ccc(C#N)cc4O)CC3)nc(N)c2c2c1CCC2 [Example 534],0.1 to 1,100 to 3000,,,
CC#Cc1ccc2c(N)nc(NC3CCN(C)CC3)nc2n1 [Example 283],1 to 10,,,,
